Experiments:
[1] = test system: CD14+ monocytes; assay: Immunoblot of phospho-STING in CD14+ monocytes from healthy donors; assay type: cell-based, human; conditions: 5 μg/mL 2′3′-cGAMP, 6 hours, MLN7243, FIG. 12K
Description: FIGS. 12A-12O show involvement of ESCRT components in ubiquitination and degradation of STING. […] One representative blot of n=2 independent experiments. […] One representative plot of n=3 technical replicates. […] Each dot represents one technical replicate. Paired t-test, *** p<0.001. […] One representative plot of n=3 independent experiments with n=2 technical replicates per experiment. […] Each dot represents an individual replicate. One-way ANOVA with Dunnet's multiple comparisons. **** p<0.0001, *** p<0.001. […] FIGS. 12G-12J show immunofluorescence in 293T stably expressing STING-HA after stimulation with cGAMP for 2 hours. […] Dashed boxes represent the cropped regions shown in the right panels. One representative field of n≥5 fields in n=2 independent experiments. Scale bar is 10 μm. […] One representative blot of n=3 independent donors in n=2 independent experiments. […] One representative experiment of n=3 independent experiments with n=2 technical replicates. […] Friedman test with Dunn's multiple comparison test. **** p<0.0001, ** p<0.01, ns: not significant.
CD14+ monocytes were isolated from peripheral adult human blood as previously described 1. […]
Samples for pull-downs or immunoprecipitations were treated as described in the corresponding paragraphs. […] ECL signal was recorded on a ChemiDoc Biorad Imager. Data was analyzed with ImageLab (Biorad).

[2] = test system: STING association with ESCRT (HGS, VPS37A) and TBK1; assay: STING-TurboID proximity biotin labeling and streptavidin pull-down in 293T; assay type: cell-based, human; conditions: 293T STING-TurboID; 3 hours; 0.5 μM MLN7243; FIG. 5C
Description: Generation of cells and stimulation. 293T cells were transduced with pTRIP-hPGK-Blast-2A-STING-TurboID and selected with 15 μg/mL Blasticidin (Invivogen) for one week. To test the construct via pull-down, 0.8 million cells were seeded in a 6 well plate. The following day, cells were permeabilized with 300 μl/well of cGAMP permeabilization buffer [50 mM HEPES (Corning), 100 mM KCl (Thermo Fisher), 3 mM MgCl2 (Thermo Fisher), 0.1 mM DTT (Thermo fisher), 85 mM Sucrose (Thermo Fisher), 0.5 mM ATP (Cayman chemicals), 0.1 mM GTP (Cayman Chemicals), 0.2% BSA (Seracare), 0.001% Digitonin (Promega)| containing 1 μg/mL 2′3′-cGAMP (Invivogen) or water for 10 minutes at 37° C., washed with 3 mL of warm medium and then medium was replaced. For mass-spec, 6 million cells were seeded in a 10 cm dish for each condition. Cells were stimulated with 2.8 mL of cGAMP permeabilization buffer containing 6 μg total of cGAMP per dish. Cells were left stimulating for the desired times and 500 μM biotin (Cayman chemicals) was added in each well 30 minutes prior to harvest. Cells were harvested by trypsinization, washed 3 times in cold PBS and pellets were frozen until processing. For experiments in 6 well plates, 3 wells per condition were harvested. For experiments in 10 cm dishes, one dish per condition was harvested.
Pull-down. […]

[3] = test system: STING-mNeonGreen; assay: STING degradation in 293T STING-mNeonGreen reporter cell line by flow cytometry; conditions: 293T STING-mNG; 4 μg/mL 2′3′-cGAMP(pS)2; 0.5 μM MLN7243; FIGS. 5A-5B
Description: MLN7243 (Selleckchem) was used at 0.5 μM in all experiments. All cell lines were pre-treated for one hour before cGAMP stimulation. […] Cells were stimulated with 300 μL cGAMP permeabilization buffer containing 0.5 μg/mL 2′3′-cGAMP for 10 minutes, washed with 3 mL of medium, and medium was then replaced. MLN7243 was added again after medium replacement. Cells were stimulated for the indicated times.
Cells were then washed twice with Cytoperm and resuspended in FACS buffer for flow cytometry. Acquisition was performed on a Cytoflex S or Cytoflex LX (Beckman Coulter). Data was analyzed with FlowJo (BD).

SMILES: NS(=O)(=O)OC[C@H]1C[C@@H](Nc2ccnc3cc(-c4cccc(SC(F)(F)F)c4)nn23)[C@H](O)[C@@H]1O [MLN7243]
- phospho-STING levels [1]: strong increase in phospho-STING levels
- biotin labeling of HGS and VPS37A by STING-TurboID [2]: reduced the biotin labeling of HGS and VPS37A
- biotin labeling of TBK1 by STING-TurboID [2]: unaffected
- degradation of STING (% STING-mNG positive cells) [3]: complete block of degradation of STING
